Measured values published in patent US9505728B2, “Triazolone compounds and uses thereof” (INCEPTION 2, INC., priority 2012, dated 2016).
Like-named read-outs stand apart in the source and are kept apart here.

How the values were obtained:
Assay type in all cases: cell-based
[1] = target: T1, Glucocorticoid Receptor (Homo sapiens, UniProt P04150); assay: Target selectivity counterscreen, Glucocorticoid Receptor reporter assay; conditions: receptor agonist at ~EC80
T1 construct: host or cells: engineered reporter cells of the kit
T1 sequence (P04150 1-777): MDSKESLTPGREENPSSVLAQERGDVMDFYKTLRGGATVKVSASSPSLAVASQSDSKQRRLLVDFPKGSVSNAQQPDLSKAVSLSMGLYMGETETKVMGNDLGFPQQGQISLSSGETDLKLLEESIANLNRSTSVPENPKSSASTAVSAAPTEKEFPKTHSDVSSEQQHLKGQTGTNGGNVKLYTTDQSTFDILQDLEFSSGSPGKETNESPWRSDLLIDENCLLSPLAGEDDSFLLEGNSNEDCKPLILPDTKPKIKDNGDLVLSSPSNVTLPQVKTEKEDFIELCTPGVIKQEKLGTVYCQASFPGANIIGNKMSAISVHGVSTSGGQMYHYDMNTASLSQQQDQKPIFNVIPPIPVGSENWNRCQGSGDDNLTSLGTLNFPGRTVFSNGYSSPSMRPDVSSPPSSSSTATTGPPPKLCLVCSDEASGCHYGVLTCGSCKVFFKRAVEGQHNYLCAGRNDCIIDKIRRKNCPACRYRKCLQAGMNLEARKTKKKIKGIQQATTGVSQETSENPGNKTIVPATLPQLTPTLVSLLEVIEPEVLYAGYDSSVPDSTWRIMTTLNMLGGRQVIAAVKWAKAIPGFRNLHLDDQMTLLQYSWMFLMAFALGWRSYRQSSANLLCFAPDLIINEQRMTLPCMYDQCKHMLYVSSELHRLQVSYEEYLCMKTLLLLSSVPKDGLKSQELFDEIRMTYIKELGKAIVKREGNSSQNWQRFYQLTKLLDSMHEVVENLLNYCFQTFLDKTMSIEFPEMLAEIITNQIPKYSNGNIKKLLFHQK
Description: (§1) Target Selectivity Assays
(§2) To determine species selectivity, a Mouse PPARα Reporter Assay System was used (Indigo Biosciences, Cat. #M00111). Activity of test compounds to antagonize or agonize other isoforms of human PPAR, for example β/δ and γ, were assessed using the corresponding kits from Indigo Biosciences (Cat. #IB00121 and #IB00101, respectively). In addition to PPAR activity, compounds were also screened for activity against other nuclear hormone receptors including Estrogen Receptor β, Glucocorticoid Receptor and Thyroid Receptor β using commercially available kits (Indigo Biosciences, Cat. #IB00411, IB00201 and IB01101, respectively). Each assay system from Indigo Biosciences uses technology analogous to the human PPARα kit, with the variance being that the cells used for each assay were engineered to over-express the receptor of interest. In addition, the appropriate receptor agonist (included with each kit) was used at ˜EC80 for assays in which antagonist potency was being assessed.

[2] = target: T2, Thyroid Receptor β (Homo sapiens, UniProt P10828); assay: Target selectivity counterscreen, Thyroid Receptor β reporter assay; conditions: receptor agonist at ~EC80
T2 construct: host or cells: engineered reporter cells of the kit
T2 sequence (P10828 1-461): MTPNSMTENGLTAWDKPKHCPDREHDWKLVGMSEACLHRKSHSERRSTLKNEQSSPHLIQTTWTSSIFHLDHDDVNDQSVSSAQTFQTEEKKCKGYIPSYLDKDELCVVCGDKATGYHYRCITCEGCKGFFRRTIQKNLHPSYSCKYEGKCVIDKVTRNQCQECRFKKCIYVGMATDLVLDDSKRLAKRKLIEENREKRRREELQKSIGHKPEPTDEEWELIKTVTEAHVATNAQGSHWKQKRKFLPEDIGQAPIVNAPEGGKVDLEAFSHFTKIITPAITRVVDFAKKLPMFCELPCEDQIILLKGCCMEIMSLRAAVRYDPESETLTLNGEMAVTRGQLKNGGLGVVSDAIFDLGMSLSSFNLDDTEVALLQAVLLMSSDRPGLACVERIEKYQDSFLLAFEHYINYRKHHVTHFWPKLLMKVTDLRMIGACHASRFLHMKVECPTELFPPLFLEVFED
Description: as §1, §2

[3] = target: T3, Human PPARα (Homo sapiens, UniProt Q07869); assay: Human PPARα Reporter Assay (luciferase)
T3 construct: host or cells: proprietary non-human mammalian cells
T3 sequence (Q07869 1-468): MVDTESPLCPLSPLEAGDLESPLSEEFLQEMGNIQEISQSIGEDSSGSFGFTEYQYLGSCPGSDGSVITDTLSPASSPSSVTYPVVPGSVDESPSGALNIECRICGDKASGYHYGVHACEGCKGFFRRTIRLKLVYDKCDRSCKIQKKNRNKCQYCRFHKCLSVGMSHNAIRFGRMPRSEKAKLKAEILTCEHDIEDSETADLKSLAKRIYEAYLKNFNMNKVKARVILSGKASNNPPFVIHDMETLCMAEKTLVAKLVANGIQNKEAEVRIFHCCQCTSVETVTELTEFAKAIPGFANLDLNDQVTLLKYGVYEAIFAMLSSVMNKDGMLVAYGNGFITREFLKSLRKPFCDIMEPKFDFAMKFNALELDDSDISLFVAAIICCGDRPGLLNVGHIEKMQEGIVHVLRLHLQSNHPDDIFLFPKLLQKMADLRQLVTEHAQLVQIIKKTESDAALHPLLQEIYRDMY
Method in brief: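 Agonist or antagonist activity read as luciferase light from engineered reporter cells carrying human PPARα and a responsive reporter gene. Cells got compound immediately on dispensing, incubated overnight, then treatment media swapped for luciferase detection reagent.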

[4] = target: T4, Estrogen Receptor β (Homo sapiens, UniProt Q92731); assay: Target selectivity counterscreen, Estrogen Receptor β reporter assay; conditions: receptor agonist at ~EC80
T4 construct: host or cells: engineered reporter cells of the kit
Description: as §1, §2

[5] = target: T5, PPAR beta/delta (Homo sapiens, UniProt Q03181); assay: Target selectivity counterscreen, PPAR β/δ reporter assay; conditions: receptor agonist at ~EC80
T5 construct: host or cells: engineered reporter cells of the kit
T5 sequence (Q03181 1-441): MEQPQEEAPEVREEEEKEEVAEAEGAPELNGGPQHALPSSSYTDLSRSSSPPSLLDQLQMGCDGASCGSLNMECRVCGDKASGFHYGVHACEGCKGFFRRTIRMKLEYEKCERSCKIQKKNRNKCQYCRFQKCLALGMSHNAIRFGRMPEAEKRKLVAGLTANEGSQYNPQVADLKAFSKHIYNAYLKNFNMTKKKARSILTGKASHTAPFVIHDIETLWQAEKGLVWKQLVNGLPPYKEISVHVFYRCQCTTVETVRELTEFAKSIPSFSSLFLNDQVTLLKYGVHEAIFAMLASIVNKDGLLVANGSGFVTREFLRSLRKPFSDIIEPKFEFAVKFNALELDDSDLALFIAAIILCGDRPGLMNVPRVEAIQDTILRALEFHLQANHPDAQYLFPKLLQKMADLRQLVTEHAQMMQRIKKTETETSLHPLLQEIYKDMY
Description: as §1, §2

[6] = target: T6, PPAR gamma (Homo sapiens, UniProt P37231); assay: Target selectivity counterscreen, PPAR γ reporter assay; conditions: receptor agonist at ~EC80
T6 construct: host or cells: engineered reporter cells of the kit
T6 sequence (P37231 1-505): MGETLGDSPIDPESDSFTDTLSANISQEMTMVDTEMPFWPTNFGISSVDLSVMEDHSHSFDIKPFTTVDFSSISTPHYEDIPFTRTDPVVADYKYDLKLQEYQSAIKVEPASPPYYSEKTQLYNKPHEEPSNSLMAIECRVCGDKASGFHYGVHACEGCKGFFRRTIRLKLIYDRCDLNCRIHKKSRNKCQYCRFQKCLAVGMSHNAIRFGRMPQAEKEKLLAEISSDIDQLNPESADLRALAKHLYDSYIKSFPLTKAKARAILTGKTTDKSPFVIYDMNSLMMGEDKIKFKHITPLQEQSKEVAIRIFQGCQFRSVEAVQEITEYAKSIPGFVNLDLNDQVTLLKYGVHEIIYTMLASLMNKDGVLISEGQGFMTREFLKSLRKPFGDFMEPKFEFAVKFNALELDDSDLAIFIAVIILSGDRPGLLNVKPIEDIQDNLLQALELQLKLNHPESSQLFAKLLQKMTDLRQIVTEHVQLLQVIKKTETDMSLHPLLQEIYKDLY
Description: as §1, §2

T4 sequence (Q92731 whole entry): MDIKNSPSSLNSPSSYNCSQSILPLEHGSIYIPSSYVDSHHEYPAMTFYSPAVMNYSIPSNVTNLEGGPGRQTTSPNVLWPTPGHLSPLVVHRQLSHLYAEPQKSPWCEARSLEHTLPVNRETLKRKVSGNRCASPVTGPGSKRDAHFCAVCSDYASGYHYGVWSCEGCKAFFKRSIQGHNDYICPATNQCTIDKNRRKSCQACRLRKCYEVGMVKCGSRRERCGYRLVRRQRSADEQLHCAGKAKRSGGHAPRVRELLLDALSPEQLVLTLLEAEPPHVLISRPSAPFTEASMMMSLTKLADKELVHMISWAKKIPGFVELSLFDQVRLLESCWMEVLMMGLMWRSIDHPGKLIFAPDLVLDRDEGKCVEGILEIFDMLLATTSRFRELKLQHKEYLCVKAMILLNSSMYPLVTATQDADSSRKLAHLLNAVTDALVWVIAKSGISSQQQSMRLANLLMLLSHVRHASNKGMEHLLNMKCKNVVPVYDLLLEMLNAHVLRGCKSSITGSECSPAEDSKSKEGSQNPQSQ

- IC50 [1]: > 10 µM
- IC50 [2]: > 10 µM
- IC50 ([3]; counterscreen table, antagonist potency, read-out: PPAR alpha IC50): 0.025 µM
- IC50 ([3]; human PPARα reporter cells, overnight incubation, antagonism, read-out: Luciferase IC50): 7.31 µM
- IC50 [4]: 17.5 µM
- IC50 [5]: > 50 µM
- IC50 [6]: > 50 µM
Structure (SMILES): CCn1c(CCCc2ccc(-c3cccc(CC(=O)O)c3)cc2)nn(Cc2ccccc2)c1=O [Example 23, 2-(4′-(3-(1-Benzyl-4-ethyl-5-oxo-4,5-dihydro-1H-1,2,4-triazol-3-yl)propyl)-[1,1′-biphenyl]-3-yl)acetic acid]
